Data as given in US9474790B2, “Stable, protracted GLP-1/glucagon receptor co-agonists for medical use” (Novo Nordisk A/S, priority 2013, dated 2016).
Numbered stars: 1 amine (or outer) side, 2 acyl side, 3 side chain; on linkers, the order of the positions; unused ones are H or OH. Bridge positions count the residues as written; N and C are the ends. Square brackets hold non-standard residues; d marks the D form. Side chains are listed from the residue outwards. Peptide text beside a SMILES is read from it. I, II: the chains in the order shown. * marks the point of attachment. C18 diacid = O=C(O)CCCCCCCCCCCCCCCCC(=O)*; γGlu = O=C(O)[C@H](CCC(=O)[*:2])N[*:1]; Ac4c = NC1(C(=O)O)CCC1; AEEA = NCCOCCOCC(=O)O; Aib = CC(C)(N)C(=O)O

molecular target: T1, human glucagon receptor (Homo sapiens, UniProt P47871); experiment: Glucagon receptor binding, 125I-glucagon displacement SPA on isolated membranes; conditions: displacement of 125I-glucagon from membranes; read-out: IC50 GlucR
T1 construct: expressed in transfected cells; host or cells: BHK cells (parent BHK570, CRE luciferase clone BHK/KZ10-20-48), clone pLJ6'-4-25
Description: The purpose of this assay was to test the in vitro receptor binding activity (i.e. affinity) of the glucagon derivatives of the invention. The receptor binding activity is a measure of affinity of a derivative for the human glucagon receptor.
The receptor binding of each compound to the human glucagon receptor was measured in a displacement binding assay. In this type of assay a labelled ligand (in this case 125I-glucagon) is bound to the receptor. Each derivative was added in a series of concentrations to isolated membranes containing the human glucagon receptor and displacement of the labelled ligand is monitored. The receptor binding was reported as the concentration at which half of the labelled ligand is displaced from the receptor, the IC50 value.
In order to test the binding of the derivatives to albumin, the assay may be performed in a very low concentration of serum albumin (max. 0.001% final assay concentration) as well as in the presence of a higher concentration of serum albumin (0.2% final assay concentration). An increase of the IC50 value, in the presence of serum albumin indicates an affinity to serum albumin and represents a method to predict a protracted pharmacokinetic profile of the test substance in animal models.
The following chemicals were used in the assay: DMEM w Glutamax (Gibco 61965-026), Pen/strep (Invitrogen 15140-122), G418 (Invitrogen 10131-027), Versene (Gibco 15040), 1 M Hepes (Gibco 15630), PBS (Invitrogen 14190-094), fetal calf serum (Invitrogen 16140-071), MgCl2 (Merck 1.05832.1000), EDTA (Invitrogen 15575-038), CaCl2 (Sigma, C5080), Tween 20 (Amresco 0850C335), ovalbumin (Sigma A5503), SPA particles (wheat germ agglutinin (WGA) SPA beads, Perkin Elmer RPNQ0001), [125I]-glucagon (produced in-house), OptiPlate™-96 (Packard 6005290).
HME buffer consisted of 25 mM HEPES, 2 mM MgCl2 and 1 mM EDTA, and pH was adjusted to 7.4. Assay buffer consisted of 50 mM HEPES supplemented with 5 mM MgCl2, 1 mM CaCl2, 0.02% Tween 20 and 0.1% Ovalbumin, and pH was adjusted to 7.4.
The cells used in this assay (clone BHK hGCGR A3*25) were BHK cells stable transfected with an expression plasmid containing the cDNA encoding the human glucagon receptor.
The cells were grown at 5% CO2 in DMEM, 10% fetal calf serum, 1% Pen/Strep (Penicillin/Streptomycin) and 1.0 mg/ml of the selection marker G418. To make a membrane preparation the cells were grown to approximately 80% confluence. The cells were washed twice in phosphate-buffered saline and harvested. The cells were pelleted using a brief centrifugation and the cell pellet was kept on ice. Lyse the cells by adding approx. 5 ml HME buffer, mix by pipetting and snap freeze in liquid nitrogen. Thaw quickly and add HME buffer to 10 ml. The cell pellet was homogenised with an ULTRA-THURRAX dispersing instrument for 20-30 sec. The homogenate was centrifuged at 20.000×G, 4° C. for 10 min. The pellet was re-suspended (homogenised) in 1-2 ml HME buffer. The protein concentration was determined. The membranes were aliquoted and snap-frozen in liquid nitrogen and stored at minus 80° C.
1. For the receptor binding assay, 50 μl of the assay buffer was added to each well of an assay plate.
2. Test compounds were serially diluted to give the following concentrations: 8×10EE-7 M, 8×10EE-8 M, 8×10EE-9 M, 8×10EE-10 M, 8×10EE-11 M, 8×10EE-12 M and 8×10EE-13 M. Twenty-five μl were added to appropriate wells in the assay plate.
3. Cell membrane aliquots were thawed and diluted to their working concentration. Fifty μl were added to each well in the assay plate.
4. WGA SPA beads were suspended in assay buffer at 20 mg/ml. The suspension was diluted to 10 mg/ml in assay buffer just prior to addition to the assay plate. Fifty μl were added to each well in the assay plate.
5. The incubation was started by adding 25 μl of 480 pM solution of [125I]-glucagon to each well of the assay plate. A 25 μl aliquot was reserved for measuring total counts/well.
6. The assay plate was incubated for 2 h at 25° C.
7. […]

T1 sequence (P47871 26-477): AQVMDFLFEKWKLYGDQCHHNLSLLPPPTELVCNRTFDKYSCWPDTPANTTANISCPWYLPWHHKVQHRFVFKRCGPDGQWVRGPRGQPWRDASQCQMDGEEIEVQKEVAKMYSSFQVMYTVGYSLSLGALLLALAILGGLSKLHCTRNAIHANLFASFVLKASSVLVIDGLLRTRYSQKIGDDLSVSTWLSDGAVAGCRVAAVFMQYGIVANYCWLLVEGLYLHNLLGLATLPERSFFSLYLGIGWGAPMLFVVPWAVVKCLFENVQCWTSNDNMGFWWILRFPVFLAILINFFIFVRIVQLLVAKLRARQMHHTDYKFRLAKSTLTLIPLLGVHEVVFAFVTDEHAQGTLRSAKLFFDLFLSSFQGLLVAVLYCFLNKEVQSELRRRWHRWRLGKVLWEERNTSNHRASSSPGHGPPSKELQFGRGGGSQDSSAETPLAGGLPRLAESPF

| SMILES | IC50 [nM] |
| --- | --- |
| CC(C)C[C@H](NC(=O)[C@H](CC(C)C)NC(=O)[C@H](Cc1c[nH]c2ccccc12)NC(=O)[C@H](CCC(N)=O)NC(=O)[C@@H](NC(=O)[C@H](Cc1ccccc1)NC(=O)[C@H](CCC(=O)O)NC(=O)[C@H](CCC(N)=O)NC(=O)[C@H](C)NC(=O)[C@H](C)NC(=O)[C@H](CCCCN)NC(=O)[C@H](CO)NC(=O)[C@H](CC(=O)O)NC(=O)[C@H](CC(C)C)NC(=O)[C@H](Cc1ccc(O)cc1)NC(=O)[C@H](CCCCN)NC(=O)[C@H](CO)NC(=O)[C@H](CC(C)C)NC(=O)[C@H](CC(=O)O)NC(=O)[C@H](CO)NC(=O)[C@@H](NC(=O)[C@H](Cc1ccccc1)NC(=O)[C@@H](NC(=O)CNC(=O)[C@H](CCC(N)=O)NC(=O)C(C)(C)NC(=O)[C@@H](N)Cc1c[nH]cn1)[C@@H](C)O)[C@@H](C)O)C(C)C)C(=O)N[C@@H](CC(N)=O)C(=O)N[C@@H](CCCCNC(=O)CC[C@H](NC(=O)CC[C@H](NC(=O)COCCOCCNC(=O)COCCOCCNC(=O)CC[C@H](NC(=O)CCCCCCCCCCCCCCCCC(=O)O)C(=O)O)C(=O)O)C(=O)O)C(N)=O [Example 8, N^ε29-[(4S)-4-carboxy-4-[[(4S)-4-carboxy-4-[[2-[2-[2-[[2-[2-[2-[[(4S)-4-carboxy-4-(17-carboxyheptadecanoylamino)butanoyl]amino]ethoxy]ethoxy]acetyl]amino]ethoxy]ethoxy]acetyl]amino]butanoyl]amino]butanoyl]-[Aib2,Leu10,Lys17,Ala18,Glu21,Leu27,Lys29]-Glucagon amide] (H-H[Aib]QGTFTSDLSKYLDSKAAQEFVQWLLNK([γGlu-γGlu-AEEA-AEEA-γGlu-C18 diacid])-NH2; N-terminus assumed) | 6.7 |
| CC(C)C[C@H](NC(=O)[C@H](Cc1ccc(O)cc1)NC(=O)[C@H](CCCCN)NC(=O)[C@H](CO)NC(=O)[C@H](CC(C)C)NC(=O)[C@H](CC(=O)O)NC(=O)[C@H](CO)NC(=O)[C@@H](NC(=O)[C@H](Cc1ccccc1)NC(=O)[C@@H](NC(=O)CNC(=O)[C@H](CCC(N)=O)NC(=O)C(C)(C)NC(=O)[C@@H](N)Cc1c[nH]cn1)[C@@H](C)O)[C@@H](C)O)C(=O)N[C@@H](CC(=O)O)C(=O)N[C@@H](CCCCNC(=O)CC[C@H](NC(=O)CC[C@H](NC(=O)COCCOCCNC(=O)COCCOCCNC(=O)CC[C@H](NC(=O)CCCCCCCCCCCCCCCCC(=O)O)C(=O)O)C(=O)O)C(=O)O)C(=O)N[C@@H](CCCNC(=N)N)C(=O)N[C@@H](CCCNC(=N)N)C(=O)N[C@@H](C)C(=O)N[C@@H](CCCNC(=N)N)C(=O)N[C@@H](CCC(=O)O)C(=O)N[C@@H](Cc1ccccc1)C(=O)N[C@H](C(=O)N[C@@H](CCC(N)=O)C(=O)N[C@@H](Cc1c[nH]c2ccccc12)C(=O)N[C@@H](CC(C)C)C(=O)N[C@@H](CC(C)C)C(=O)N[C@@H](CC(N)=O)C(=O)N[C@H](C(N)=O)[C@@H](C)O)C(C)C [Example 10, N^ε16-[(4S)-4-carboxy-4-[[(4S)-4-carboxy-4-[[2-[2-[2-[[2-[2-[2-[[(4S)-4-carboxy-4-(17-carboxyheptadecanoylamino)butanoyl]amino]ethoxy]ethoxy]acetyl]amino]ethoxy]ethoxy]acetyl]amino]butanoyl]amino]butanoyl]-[Aib2,Leu10,Lys16,Arg20,Glu21,Leu27]-Glucagon amide] (H-H[Aib]QGTFTSDLSKYLDK([γGlu-γGlu-AEEA-AEEA-γGlu-C18 diacid])RRAREFVQWLLNT-NH2; N-terminus assumed) | 1.2 |
| CC(C)C[C@H](NC(=O)[C@H](Cc1ccc(O)cc1)NC(=O)[C@H](CCCCN)NC(=O)[C@H](CO)NC(=O)[C@H](CC(C)C)NC(=O)[C@H](CC(=O)O)NC(=O)[C@H](CO)NC(=O)[C@@H](NC(=O)[C@H](Cc1ccccc1)NC(=O)[C@@H](NC(=O)CNC(=O)[C@H](CCC(N)=O)NC(=O)C1(NC(=O)[C@@H](N)Cc2c[nH]cn2)CCC1)[C@@H](C)O)[C@@H](C)O)C(=O)N[C@@H](CCC(=O)O)C(=O)N[C@@H](CCC(=O)O)C(=O)N[C@@H](CCCNC(=N)N)C(=O)N[C@@H](CCCNC(=N)N)C(=O)N[C@@H](C)C(=O)N[C@@H](CCCNC(=N)N)C(=O)N[C@@H](CC(=O)O)C(=O)N[C@@H](Cc1ccccc1)C(=O)N[C@H](C(=O)N[C@@H](CCC(N)=O)C(=O)N[C@@H](Cc1c[nH]c2ccccc12)C(=O)N[C@@H](CC(C)C)C(=O)N[C@@H](CC(C)C)C(=O)N[C@@H](CCCCNC(=O)CNC(=O)[C@H](CO)NC(=O)[C@H](CCC(=O)O)NC(=O)CNC(=O)[C@H](CO)NC(=O)CC[C@H](NC(=O)CC[C@H](NC(=O)CCCCCCCCCCCCCCCCC(=O)O)C(=O)O)C(=O)O)C(=O)N[C@H](C(N)=O)[C@@H](C)O)C(C)C [Example 16, N^ε28-[2-[[(2S)-2-[[(2S)-4-carboxy-2-[[2-[[(2S)-2-[[(4S)-4-carboxy-4-[[(4S)-4-carboxy-4-(17-carboxyheptadecanoylamino)butanoyl]amino]butanoyl]amino]-3-hydroxypropanoyl]amino]acetyl]amino]butanoyl]amino]-3-hydroxypropanoyl]amino]acetyl]-[Acb2,Leu10,Glu15,Glu16,Arg20,Leu27,Lys28]-Glucagon amide] (I: H-H[Ac4c]QGTFTSDLSKYLEERRARDFVQWLLKT-NH2 / II: {C18 diacid-γGlu-γGlu}-SGESG; amide I:28-II:C; N-terminus assumed) | 3.9 |
| CC(C)C[C@H](NC(=O)[C@H](Cc1c[nH]c2ccccc12)NC(=O)[C@H](C)NC(=O)[C@@H](NC(=O)[C@H](Cc1ccccc1)NC(=O)[C@H](CCC(=O)O)NC(=O)[C@H](CCCNC(=N)N)NC(=O)[C@H](C)NC(=O)[C@H](CCCNC(=N)N)NC(=O)[C@H](CCCNC(=N)N)NC(=O)[C@H](CCCCNC(=O)CC[C@H](NC(=O)COCCOCCNC(=O)COCCOCCNC(=O)CC[C@H](NC(=O)CC[C@H](NC(=O)CCCCCCCCCCCCCCCCC(=O)O)C(=O)O)C(=O)O)C(=O)O)NC(=O)[C@H](CC(=O)O)NC(=O)[C@H](CC(C)C)NC(=O)[C@H](Cc1ccc(O)cc1)NC(=O)[C@H](CCCCN)NC(=O)[C@H](CO)NC(=O)[C@H](CC(C)C)NC(=O)[C@H](CC(=O)O)NC(=O)[C@H](CO)NC(=O)[C@@H](NC(=O)[C@H](Cc1ccccc1)NC(=O)[C@@H](NC(=O)CNC(=O)[C@H](CCC(N)=O)NC(=O)C(C)(C)NC(=O)[C@@H](N)Cc1c[nH]cn1)[C@@H](C)O)[C@@H](C)O)C(C)C)C(=O)N[C@@H](CC(C)C)C(=O)N[C@@H](CC(N)=O)C(=O)N[C@H](C(N)=O)[C@@H](C)O [Example 19, N^ε29-[(4S)-4-carboxy-4-[[2-[2-[2-[[2-[2-[2-[[(4S)-4-carboxy-4-[[(4S)-4-carboxy-4-(17-carboxyheptadecanoylamino)butanoyl]amino]butanoyl]amino]ethoxy]ethoxy]acetyl]amino]ethoxy]ethoxy]acetyl]amino]butanoyl]-[Aib2,Leu10,Lys16,Arg20,Glu21,Ala24,Leu27]-Glucagon amide] (H-H[Aib]QGTFTSDLSKYLDK([γGlu-AEEA-AEEA-γGlu-γGlu-C18 diacid])RRAREFVAWLLNT-NH2; N-terminus assumed) | 8.5 |
